# Values of other authors as cited in patent EP4541846A1, “ENCAPSULANT FILM COMPOSITION, AND ENCAPSULANT FILM COMPRISING SAME” (LG Chem, Ltd., priority 2022, dated 2024).
# Structures can show the parent of a compound that is named as a salt.
# Conditions: marked by acute toxicity, oral/acute toxicity, percutaneous/skin corrosivity/skin irritation/severe eye damage/eye irritation/dermal hypersensitivity, or the like
row,SMILES,harmfulness/dangerousness classification in SDS
1,C=CCOC(=O)OC(=O)OCC=C [diallyl decarbonate],harmful
2,C=CCOC(=O)/C=C/C(=O)OCC=C [diallyl fumarate],harmful
3,C=CCOC(=O)/C=C\C(=O)OCC=C [diallyl maleate],harmful
